What was measured:
[1] = Cynomolgus monkey tolerability, pro-inflammatory proteins analysis, Complement C3 and CRP (Example 34); assay type: in vivo; details: cynomolgus monkeys, 35 mg/kg subcutaneously; for CRP: day 44
Summary of the method: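 Inflammatory effects of oligonucleotides in cynomolgus monkeys were assessed using blood samples taken after an overnight fast. About 0.8 mL of blood per animal went into tubes without anticoagulant so serum could be separated. Complement C3 was measured on a Toshiba 120 FR NEO chemistry analyzer. C-Reactive Protein was measured alongside the liver-function clinical chemistry parameters.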

[2] = system: Yap1 mRNA; assay: Dose-dependent inhibition of human Yap1 in A-431 cells (Example 24, 11,000 cells per well, RTS36584, normalized to GAPDH); assay type: cell-based; details: free uptake, 48 hours; for Yap1 mRNA, % UTC: RTS36584, normalized to GAPDH; for IC50: linear regression on a log/linear plot
Description: Modified oligonucleotides described in the studies above were tested at various doses in A-431 cells. Cultured A-431 cells at a density of 11,000 cells per well were treated using free uptake with modified oligonucleotides diluted to concentrations described in the tables below. After approximately 48 hours, Yap1 mRNA levels were measured as previously described using the Human Yap1 primer-probe set RTS36584. Yap1 mRNA levels were normalized to GAPDH content, as measured by primer probe set RTS104 (forward sequence […], designated herein as SEQ ID NO.: 17; reverse sequence […], designated herein as SEQ ID NO.: 18; probe sequence […], designated herein as SEQ ID NO.: 19). Results are presented in the tables below as percent control of the amount of Yap1 mRNA relative to untreated control cells (% UTC). IC50s were calculated using a linear regression on a log/linear plot of the data in excel.

[3] = Cynomolgus monkey tolerability, coagulation (Example 34); assay type: in vivo; details: cynomolgus monkeys, 35 mg/kg subcutaneously, day 44
Description: To evaluate effect of Ionis modified oligonucleotides on coagulation in cynomolgus monkeys, blood samples of approximately 0.9 mL were collected from each of the available study animals on day 44. The samples were collected in tubes containing 3.2% sodium citrate. Coagulation parameters tested include Activated partial thromboplastin time (APTT), prothrombin time (PT) and Figrinogen (FIB).

[4] = Cynomolgus monkey tolerability, body and organ weight measurements (Example 34); assay type: in vivo; details: cynomolgus monkeys, 35 mg/kg subcutaneously; for Heart weight / Kidney weight / Liver with gallbladder weight / Spleen weight: necropsy; for Terminal Body Weight: prior to necropsy
Summary of the method: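 Monkeys given modified oligonucleotides, observed twice daily, and euthanized on day 86, about 48 h after the last dose. Terminal body weight taken before necropsy; organ weights measured.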

[5] = system: SCC25 cells; assay: Cell proliferation assay in SCC25 cells, CellTiter-Glo (Example 25); assay type: cell-based, human; details: free uptake, 144 hours
Description: Modified oligonucleotides described in the studies above were tested at various doses in squamous cell carcinoma cell SCC25. A control oligonucleotide 792169 (a 3-10-3 cET gapmer with a full phosphorothioate backbone, […], designated herein as SEQ ID No.: 2940; is not complementary to any known human gene) was also tested.
Cultured SCC25 cells at a density of 1,000 cells/well were treated using free uptake with modified oligonucleotides diluted to concentrations described in the tables below. After approximately 144 hours, cell proliferation was measured using the luminescent cell viability CellTiter-Glo® 2.0 Assay (Promega). Results are presented in the tables below as percent control of the amount of luminescence in samples treated with modified oligonucleotides relative to untreated control cells (% UTC).

[6] = system: Yap1 mRNA; assay: Inhibition of human Yap1 mRNA in epidermoid carcinoma A-431 xenograft tumors (Example 27); assay type: in vivo; details: A-431 xenografts in NCr-Foxn1nu mice, 6-8 hours post final dose, relative to PBS
Description: An epidermoid carcinoma A-431 xenograft tumor model was used to evaluate activity of modified oligonucleotides targeted to human Yap1. Five million A-431 cells in 30% matrigel were implanted subcutaneously into the flanks of female NCr-Foxn1nu mice (from Taconic) at 4-6 weeks of age. When tumors reached an average volume of 40 mm^3, approximately two weeks post-implantation, groups of four mice each were administered at either 25 mg/kg or 50 mg/kg daily with modified oligonucleotides for […] (5 doses). Tumors were collected 6-8 hours post final dose and tested for Yap1 mRNA knockdown by RT-qPCR. Yap1 mRNA levels were measured as previously described using the Human Yap1 primer-probe set RTS4814. Yap1 mRNA levels were normalized to actin-beta content, as measured by primer probe set RTS5002. Results are presented in the tables below as percent control of the amount of Yap1 mRNA relative to PBS treated animals (% control).

[7] = Tolerability in Sprague-Dawley rats, body and organ weights (Example 22); assay type: in vivo; details: male Sprague-Dawley rats, 50 mg/kg s.c. weekly for 6 weeks (7 doses); for Kidney weight / Liver weight / Spleen weight: end of study; for body weight: terminal, prior to necropsy
Description: Terminal body weight was measured prior to necropsy. Ionis oligonucleotides that caused any changes in organ weights outside the expected range for modified oligonucleotides were excluded from further studies.

[8] = Cynomolgus monkey tolerability, urine analysis (Example 34); details: cynomolgus monkeys, 35 mg/kg subcutaneously, day 44

Substance | Complement C3 ([1]; Day 42 (pre-dose)) | Complement C3 ([1]; day 42 (24 hr post-dose)) | CRP [1] | Yap1 mRNA, % UTC ([2]; 0.002 μM) | Yap1 mRNA, % UTC ([2]; 0.008 μM) | Yap1 mRNA, % UTC ([2]; 0.04 μM) | Yap1 mRNA, % UTC ([2]; 0.2 μM) | Yap1 mRNA, % UTC ([2]; 1 μM) | APTT [3] | FIB [3] | PT [3] | Heart weight [4] | Kidney weight [4] | Liver with gallbladder weight [4] | Spleen weight [4] | Terminal Body Weight [4] | cell proliferation (luminescence) % UTC ([5]; 0.04 μM) | cell proliferation (luminescence) % UTC ([5]; 0.2 μM) | cell proliferation (luminescence) % UTC ([5]; 1 μM) | cell proliferation (luminescence) % UTC ([5]; 5 μM) | other results
1198728 (TATTAGAGTATGTGGC; modified gapmer, further chemistry not given here) [compound 1198728] | 93 mg/dL | 90 mg/dL | 4.0 mg/L | 1 % UTC | 4 % UTC | 27 % UTC | 85 % UTC | 87 % UTC | 18 s | 242 mg/dL | 9 s | 10 g | 15 g | 65 g | 5 g | 2722 g | 88 % UTC | 61 % UTC | 30 % UTC | 20 % UTC | IC50 [2]: 20 nM; Yap1 mRNA in tumors, % control ([6]; 25 mpk daily (5 doses)): 47 % control; Yap1 mRNA in tumors, % control ([6]; 50 mpk daily (5 doses)): 39 % control; Kidney weight [7]: 2.9 g; Liver weight [7]: 15 g; Spleen weight [7]: 1.4 g; body weight [7]: 381 g; UALB [8]: 0.3 mg/dL; UCRE [8]: 70 mg/dL; UTP [8]: 16 mg/dL
1198605 (GTAATATTGCAATCTG; modified gapmer, further chemistry not given here) [compound 1198605] | 105 mg/dL | 95 mg/dL | 4.2 mg/L | 0 % UTC | 2 % UTC | 26 % UTC | 57 % UTC | 96 % UTC | 23 s | 236 mg/dL | 9 s | 11 g | 15 g | 67 g | 4 g | 2968 g | 77 % UTC | 39 % UTC | 23 % UTC | 13 % UTC | IC50 [2]: 20 nM; Yap1 mRNA in tumors, % control ([6]; 25 mpk daily (5 doses)): 32 % control; Yap1 mRNA in tumors, % control ([6]; 50 mpk daily (5 doses)): 30 % control; Kidney weight [7]: 3.6 g; Liver weight [7]: 18 g; Spleen weight [7]: 2.1 g; body weight [7]: 372 g; UALB [8]: 0.4 mg/dL; UCRE [8]: 69 mg/dL; UTP [8]: 12 mg/dL
1198623 (CTAAGTAAGGTTTCCC; modified gapmer, further chemistry not given here) [compound 1198623] | 105 mg/dL | 101 mg/dL | 2.0 mg/L | 2 % UTC | 5 % UTC | 28 % UTC | 72 % UTC | 96 % UTC | 17 s | 229 mg/dL | 10 s | 9 g | 13 g | 62 g | 3 g | 2790 g | 84 % UTC | 55 % UTC | 36 % UTC | 29 % UTC | Yap1 mRNA in tumors, % control ([6]; 25 mpk daily (5 doses)): 43 % control; Yap1 mRNA in tumors, % control ([6]; 50 mpk daily (5 doses)): 36 % control; Kidney weight [7]: 3.6 g; Liver weight [7]: 20 g; Spleen weight [7]: 1.9 g; body weight [7]: 472 g; UALB [8]: 0.2 mg/dL; UCRE [8]: 44 mg/dL; UTP [8]: 10 mg/dL
1198831 (CACTTTTACATTAGGA; chemically modified gapmer, further chemistry not given here) [compound 1198831] | 81 mg/dL | 81 mg/dL | 1.1 mg/L | 2 % UTC | 6 % UTC | 28 % UTC | 72 % UTC | 83 % UTC | 18 s | 209 mg/dL | 10 s | 11 g | 14 g | 65 g | 4 g | 2788 g | 88 % UTC | 54 % UTC | 25 % UTC | 21 % UTC | Yap1 mRNA in tumors, % control ([6]; 25 mpk daily (5 doses)): 47 % control; Yap1 mRNA in tumors, % control ([6]; 50 mpk daily (5 doses)): 37 % control; Kidney weight [7]: 3.3 g; Liver weight [7]: 19 g; Spleen weight [7]: 2.0 g; body weight [7]: 426 g; UALB [8]: 0.1 mg/dL; UCRE [8]: 46 mg/dL; UTP [8]: 13 mg/dL

— US11214803B2, “Modulators of YAP1 expression” (Ionis Pharmaceuticals, Inc., priority 2019, dated 2022)
